# Results published in patent US20070010671A1, “Novel quinazoline derivatives and methods of treatment related to the use thereof” (priority 2003, published 2007).
# Target: MCH receptor (Homo sapiens, UniProt Q99705)
# Assay: High throughput functional screening FLIPR/FDSS6000: inhibition of MCH-evoked intracellular Ca2+ changes
# Format: cell-based
# Conditions: class by percent of control at 10^-7 M or by IC50; read-out: class
# Method in brief: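 Cells expressing a non-endogenous, constitutively active MCH receptor were loaded with 4 μM Fluo4-AM (with probenecid) for 1 hr at 37° C. Test compound was preincubated 3 min at 37° C before 50 nM MCH was added. The [Ca2+]i transient was read at Ex 488/Em 530 nm for 290 s.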
row,Structure (SMILES),IC50 [µM]
1,"CN(C)c1nc(N[C@H]2CC[C@@H](NC(=O)Nc3ccc(Br)cc3Br)CC2)nc2ccccc12 [compound 77, N-(2,4-dibromophenyl)-N′-(cis-4-{[4-(dimethylamino)quinazolin-2-yl]amino}cyclohexyl)urea]",< 0.05
2,"CN(C)c1nc(N[C@H]2CC[C@@H](NC(=O)NCc3ccc(Cl)cc3Cl)CC2)nc2ccccc12 [compound 78, N-(2,4-dichlorobenzyl)-N′-(cis-4-{[4-(dimethylamino)quinazolin-2-yl]amino}cyclohexyl)urea]",< 0.05
3,COc1ccc(NC(=O)N[C@H]2CC[C@@H](Nc3nc(N(C)C)c4ccccc4n3)CC2)c(OC)c1 [compound 79],< 0.05
4,Cc1ccc(NC(=O)N[C@H]2CC[C@@H](Nc3nc(N(C)C)c4ccccc4n3)CC2)c(C)c1 [compound 80],> 0.2
5,COc1ccc(OC)c(NC(=O)N[C@H]2CC[C@@H](Nc3nc(N(C)C)c4ccccc4n3)CC2)c1 [compound 81],0.05 to 0.2
6,Cc1ccc(C)c(NC(=O)N[C@H]2CC[C@@H](Nc3nc(N(C)C)c4ccccc4n3)CC2)c1 [compound 82],> 0.2
7,CN(C)c1nc(N[C@H]2CC[C@@H](NC(=O)Nc3c(Br)cc(F)cc3Br)CC2)nc2ccccc12 [compound 83],> 0.2
8,CN(C)c1nc(N[C@H]2CC[C@@H](NC(=O)Nc3c(Cl)cccc3Cl)CC2)nc2ccccc12 [compound 84],> 0.2
9,"CCc1cccc(CC)c1NC(=O)N[C@H]1CC[C@@H](Nc2nc(N(C)C)c3ccccc3n2)CC1 [compound 85, N-(2,6-diethylphenyl)-N′-(cis-4-{[4-(dimethylamino)quinazolin-2-yl]amino}cyclohexyl)urea]",< 0.05
10,CN(C)c1nc(N[C@H]2CC[C@@H](NC(=O)Nc3ccccc3Cc3ccccc3)CC2)nc2ccccc12 [compound 86],> 0.2
11,Cc1ccc(Cl)c(NC(=O)N[C@H]2CC[C@@H](Nc3nc(N(C)C)c4ccccc4n3)CC2)c1 [compound 87],> 0.2
12,CN(C)c1nc(N[C@H]2CC[C@@H](NC(=O)Nc3cc([N+](=O)[O-])ccc3Cl)CC2)nc2ccccc12 [compound 88],0.05 to 0.2
13,"CN(C)c1nc(N[C@H]2CC[C@@H](NC(=O)Nc3c(Cl)cccc3C(F)(F)F)CC2)nc2ccccc12 [compound 89, N-[2-chloro-6-(trifluoromethyl)phenyl]-N′-(cis-4-{[4-(dimethylamino)quinazolin-2-yl]amino}cyclohexyl)urea]",< 0.05
14,Cc1cccc(Cl)c1NC(=O)N[C@H]1CC[C@@H](Nc2nc(N(C)C)c3ccccc3n2)CC1 [compound 90],< 0.05
15,"CN(C)c1nc(N[C@H]2CC[C@@H](NC(=O)NCc3ccccc3Cl)CC2)nc2ccccc12 [compound 91, N-(2-chlorobenzyl)-N′-(cis-4-{[4-(dimethylamino)quinazolin-2-yl]amino}cyclohexyl)urea]",< 0.05
16,"CCOc1ccccc1NC(=O)N[C@H]1CC[C@@H](Nc2nc(N(C)C)c3ccccc3n2)CC1 [compound 93, N-(cis-4-{[4-(dimethylamino)quinazolin-2-yl]amino}cyclohexyl)-N′-(2-ethoxyphenyl)urea]",< 0.05
17,"CCc1cccc(C(C)C)c1NC(=O)N[C@H]1CC[C@@H](Nc2nc(N(C)C)c3ccccc3n2)CC1 [compound 94, N-(cis-4-{[4-(dimethylamino)quinazolin-2-yl]amino}cyclohexyl)-N′-(2-ethyl-6-isopropylphenyl)urea]",< 0.05
18,"CCc1ccccc1NC(=O)N[C@H]1CC[C@@H](Nc2nc(N(C)C)c3ccccc3n2)CC1 [compound 95, N-(cis-4-{[4-(dimethylamino)quinazolin-2-yl]amino}cyclohexyl)-N′-(2-ethylphenyl)urea]",< 0.05
19,CN(C)c1nc(N[C@H]2CC[C@@H](NC(=O)Nc3cccc(C(F)(F)F)c3F)CC2)nc2ccccc12 [compound 96],> 0.2
20,"CN(C)c1nc(N[C@H]2CC[C@@H](NC(=O)Nc3cc(C(F)(F)F)ccc3F)CC2)nc2ccccc12 [compound 97, N-(cis-4-{[4-(dimethylamino)quinazolin-2-yl]amino}cyclohexyl)-N′-[2-fluro-5-(trifluoromethyl)phenyl]urea]",> 0.2
21,"Cc1ccc(F)c(NC(=O)N[C@H]2CC[C@@H](Nc3nc(N(C)C)c4ccccc4n3)CC2)c1 [compound 98, N-(cis-4-{[4-(dimethylamino)quinazolin-2-yl]amino}cyclohexyl)-N′-(2-fluro-5-methylphenyl)urea]",> 0.2
22,CN(C)c1nc(N[C@H]2CC[C@@H](NC(=O)Nc3cc([N+](=O)[O-])ccc3F)CC2)nc2ccccc12 [compound 99],> 0.2

row,Structure (SMILES),IC50 [µM]
1,"CN(C)c1nc(N[C@H]2CC[C@@H](NC(=O)NCc3ccccc3F)CC2)nc2ccccc12 [compound 100, N-(cis-4-{[4-(dimethylamino)quinazolin-2-yl]amino}cyclohexyl)-N′-(2-fluorobenzyl)urea]",< 0.05
2,"CN(C)c1nc(N[C@H]2CC[C@@H](NC(=O)Nc3ccccc3I)CC2)nc2ccccc12 [compound 101, N-(cis-4-{[4-(dimethylamino)quinazolin-2-yl]amino}cyclohexyl)-N′-(2-iodophenyl)urea]",< 0.05
3,"Cc1cccc(C(C)C)c1NC(=O)N[C@H]1CC[C@@H](Nc2nc(N(C)C)c3ccccc3n2)CC1 [compound 102, N-(cis-4-{[4-(dimethylamino)quinazolin-2-yl]amino}cyclohexyl)-N′-(2-isopropyl-6-methylphenyl)urea]",< 0.05
4,"CC(C)c1ccccc1NC(=O)N[C@H]1CC[C@@H](Nc2nc(N(C)C)c3ccccc3n2)CC1 [compound 103, N-(cis-4-{[4-(dimethylamino)quinazolin-2-yl]amino}cyclohexyl)-N′-(2-isopropylphenyl)urea]",< 0.05
5,"COc1cc([N+](=O)[O-])ccc1NC(=O)N[C@H]1CC[C@@H](Nc2nc(N(C)C)c3ccccc3n2)CC1 [compound 104, N-(cis-4-{[4-(dimethylamino)quinazolin-2-yl]amino}cyclohexyl)-N′-(2-methoxy-4-nitrophenyl)urea]",0.05 to 0.2
6,"COc1ccc(C)cc1NC(=O)N[C@H]1CC[C@@H](Nc2nc(N(C)C)c3ccccc3n2)CC1 [compound 105, N-(cis-4-{[4-(dimethylamino)quinazolin-2-yl]amino}cyclohexyl)-N′-(2-methoxy-5-methylphenyl)urea]",0.05 to 0.2
7,COc1ccc([N+](=O)[O-])cc1NC(=O)N[C@H]1CC[C@@H](Nc2nc(N(C)C)c3ccccc3n2)CC1 [compound 106],> 0.2
8,"Cc1c(NC(=O)N[C@H]2CC[C@@H](Nc3nc(N(C)C)c4ccccc4n3)CC2)cccc1[N+](=O)[O-] [compound 107, N-(cis-4-{[4-(dimethylamino)quinazolin-2-yl]amino}cyclohexyl)-N′-(2-methyl-3-nitrophenyl)urea]",< 0.05
9,"Cc1cc([N+](=O)[O-])ccc1NC(=O)N[C@H]1CC[C@@H](Nc2nc(N(C)C)c3ccccc3n2)CC1 [compound 108, N-(cis-4-{[4-(dimethylamino)quinazolin-2-yl]amino}cyclohexyl)-N′-(2-methyl-4-nitrophenyl)urea]",< 0.05
10,"Cc1ccc([N+](=O)[O-])cc1NC(=O)N[C@H]1CC[C@@H](Nc2nc(N(C)C)c3ccccc3n2)CC1 [compound 109, N-(cis-4-{[4-(dimethylamino)quinazolin-2-yl]amino}cyclohexyl)-N′-(2-methyl-5-nitrophenyl)urea]",< 0.05
11,Cc1cccc([N+](=O)[O-])c1NC(=O)N[C@H]1CC[C@@H](Nc2nc(N(C)C)c3ccccc3n2)CC1 [compound 110],> 0.2
12,"Cc1ccccc1CNC(=O)N[C@H]1CC[C@@H](Nc2nc(N(C)C)c3ccccc3n2)CC1 [compound 111, N-(cis-4-{[4-(dimethylamino)quinazolin-2-yl]amino}cyclohexyl)-N′-(2-methylbenzyl)urea]",< 0.05
13,CN(C)c1nc(N[C@H]2CC[C@@H](NC(=O)Nc3ccc4ccccc4c3)CC2)nc2ccccc12 [compound 112],> 0.2
14,"CN(C)c1nc(N[C@H]2CC[C@@H](NC(=O)Nc3ccccc3[N+](=O)[O-])CC2)nc2ccccc12 [compound 113, N-(cis-4-{[4-(dimethylamino)quinazolin-2-yl]amino}cyclohexyl)-N′-(2-nitrophenyl)urea]",< 0.05
15,"CCCc1ccccc1NC(=O)N[C@H]1CC[C@@H](Nc2nc(N(C)C)c3ccccc3n2)CC1 [compound 114, N-(cis-4-{[4-(dimethylamino)quinazolin-2-yl]amino}cyclohexyl)-N′-(2-propylphenyl)urea]",< 0.05
16,"CN(C)c1nc(N[C@H]2CC[C@@H](NC(=O)Nc3ccccc3Oc3ccccc3)CC2)nc2ccccc12 [compound 115, N-(cis-4-{[4-(dimethylamino)quinazolin-2-yl]amino}cyclohexyl)-N′-(2-phenoxyphenyl)urea]",0.05 to 0.2
17,"Cc1cccc(C(C)(C)C)c1NC(=O)N[C@H]1CC[C@@H](Nc2nc(N(C)C)c3ccccc3n2)CC1 [compound 116, N-(2-tert-butyl-6-methylphenyl)-N′-(cis-4-{[4-(dimethylamino)quinazolin-2-yl]amino}cyclohexyl)urea]",< 0.05
18,"CN(C)c1nc(N[C@H]2CC[C@@H](NC(=O)Nc3ccccc3C(C)(C)C)CC2)nc2ccccc12 [compound 117, N-(2-tert-butylphenyl)-N′-(cis-4-{[4-(dimethylamino)quinazolin-2-yl]amino}cyclohexyl)urea]",< 0.05
19,CSc1cccc(NC(=O)N[C@H]2CC[C@@H](Nc3nc(N(C)C)c4ccccc4n3)CC2)c1 [compound 118],0.05 to 0.2
20,CN(C)c1nc(N[C@H]2CC[C@@H](NC(=O)Nc3cccc(SC(F)(F)F)c3)CC2)nc2ccccc12 [compound 119],> 0.2
21,"CN(C)c1nc(N[C@H]2CC[C@@H](NC(=O)Nc3ccc4c(c3)OCO4)CC2)nc2ccccc12 [compound 120, N-1,3-benzodioxol-5-yl-N′-(cis-4-{[4-(dimethylamino)quinazolin-2-yl]amino}cyclohexyl)urea]",< 0.05
